Patent publication US5214204A, “Arylamidoalkyl-N-hydroxyurea compounds having lipoxygenase inhibitory activity” (Abbott Laboratories, priority 1991, dated 1993)

Experiments:
[1] = target: T1, 5-Lipoxygenase from HWBL-1 20,000 xg Supernatant (Rattus norvegicus, UniProt P12527); assay: 5-lipoxygenase inhibition, 20,000 xg supernatant of homogenized HWBL-1 cells, radiolabeled arachidonic acid; type: biochemical; settings: read-out: IC50 (in vitro inhibitory potency against 5-lipoxygenase)
T1 construct: 20,000 xg supernatant from 1.5 million homogenized HWBL-1 cells; endogenous in cells
T1 sequence (P12527 1-673): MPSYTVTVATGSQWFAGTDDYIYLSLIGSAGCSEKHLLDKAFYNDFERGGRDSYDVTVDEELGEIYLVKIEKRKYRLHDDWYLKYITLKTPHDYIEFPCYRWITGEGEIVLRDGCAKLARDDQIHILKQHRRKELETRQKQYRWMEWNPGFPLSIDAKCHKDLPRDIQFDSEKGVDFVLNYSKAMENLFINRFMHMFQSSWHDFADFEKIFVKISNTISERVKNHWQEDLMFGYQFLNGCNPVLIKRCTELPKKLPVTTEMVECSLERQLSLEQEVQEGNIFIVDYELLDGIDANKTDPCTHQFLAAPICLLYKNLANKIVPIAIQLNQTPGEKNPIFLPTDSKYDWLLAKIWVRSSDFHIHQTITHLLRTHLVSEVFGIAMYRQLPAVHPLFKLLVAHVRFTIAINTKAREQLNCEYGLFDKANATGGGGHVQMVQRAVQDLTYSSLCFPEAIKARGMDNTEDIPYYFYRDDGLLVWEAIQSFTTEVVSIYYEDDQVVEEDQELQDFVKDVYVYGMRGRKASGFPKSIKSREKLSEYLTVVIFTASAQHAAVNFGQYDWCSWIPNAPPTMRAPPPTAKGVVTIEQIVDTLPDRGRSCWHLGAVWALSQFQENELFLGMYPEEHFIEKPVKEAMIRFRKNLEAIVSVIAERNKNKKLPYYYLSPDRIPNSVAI
Experimental: Assays to determine 5-lipoxygenase inhibitory activity of representative compounds of the present invention were performed in […] incubations containing the 20,000 xg supernatant from 1.5 million homogenized HWBL-1 cells and various concentrations of the test compound. Reactions were initiated by addition of radiolabeled arachidonic acid and terminated by acidification and ether extraction. Reaction products were separated from nonconverted substrate by thin layer chromatography and measured by liquid scintillation spectroscopy. All incubations are performed in triplicate. Inhibition of 5-lipoxygenase activity was calculated as the ratio of the amount of product formed in the presence and absence of inhibitor. IC50 values (concentration of compound producing 50% enzyme inhibition) were calculated by linear regression analysis of percentage inhibition versus log inhibitor concentration plots. (Dyer, R. D.; Haviv, F.; Hanel, A. M.; Bornemier, D. A.; Carter, G. W. Fed. Proc., Fed. Am. Soc. Exp. Biol. 1984, 43, 1462A).
In Vitro Inhibitory Potencies of Compounds of this Invention
Against 5-Lipoxygenase from HWBL-1 20,000 xg Supernatant

Leukotrienes = assay: inhibition of leukotriene biosynthesis in vivo, rat peritoneal anaphylaxis model, oral; settings: oral gavage, 1 h before antigen challenge; for inhibition in vivo at 100 µmol/kg: 100 μmol/kg, read-out: % Inhibition of Leukotrienes, Oral Dose at 100 μmol/kg; for inhibition in vivo at 30 µmol/kg: 30 μmol/kg, read-out: % Inhibition of Leukotrienes, Oral Dose at 30 μmol/kg
Experimental: Inhibition of the biosynthesis of leuktrienes in vivo after oral administration of compound was determined using a rat peritoneal anaphylaxis model in a similar manner as that described by Young and coworkers (Young, P. R.; Dyer, R. D.; Carter, G. W. Fed. Proc., Fed. Am. Soc. Exp. Biol. 1985, 44, 1185). In this model rats were injected intraperitoneally (ip) with rabbit antibody to bovine serum albumin (BSA) and three hours later injected ip with BSA to induce an antgen-antibody response. Rats were sacrificed 15 minutes after this challenge and the peritoneal fluids were collected and analyzed for leukotriene levels. Test compounds were administered by gavage one hour prior to the antigen challenge. Percent inhibition values were determined by comparing the treatment group to the mean of the control group.

| Compound | IC50 [1] [nM] | inhibition in vivo at 100 µmol/kg (Leukotrienes) [%] | inhibition in vivo at 30 µmol/kg (Leukotrienes) [%] |
| --- | --- | --- | --- |
| NC(=O)N(O)CCNC(=O)c1cccc(Oc2ccccc2)c1 [Example 2] | 230 | 84 |  |
| CCCCOc1cccc(C(=O)NCCN(O)C(N)=O)c1 [Example 19] | 260 | 63 |  |
| NC(=O)N(O)CCCNC(=O)c1cccc(Oc2ccccc2)c1 [Example 21] | 70 | 95 |  |
| CNC(=O)N(O)CCCNC(=O)c1cccc(Oc2ccccc2)c1 [Example 23, N-Hydroxy-N'-methyl-N-[3-((3-phenoxybenzoyl)amino)propyl]urea] |  |  | 57 |
| NC(=O)N(O)CCNC(=O)c1cccc(Oc2ccc(Cl)cc2)c1 [Example 26, N-Hydroxy-N-[2-((3-(4-chlorophenoxy)benzoyl)amino)ethyl]urea] | 160 | 99 |  |
| C[C@H](CN(O)C(N)=O)NC(=O)c1cccc(Oc2ccccc2)c1 [Example 32, (R)-N-Hydroxy-N-[2-((3-phenoxybenzoyl)amino)propyl]urea] | 210 | 90 |  |
| CC(CNC(=O)c1cccc(Oc2ccccc2)c1)N(O)C(N)=O (centres unmarked) [Example 33, N-Hydroxy-N-[3-((3-phenoxybenzoyl)amino)prop-2-yl]urea] | 610 |  |  |
| NC(=O)N(O)CCNC(=O)c1ccc(-c2ccccc2)cc1 [Example 34, N-Hydroxy-N-[2-((4-phenylbenzoyl)amino)ethyl]urea] | 380 |  |  |
| NC(=O)N(O)CCNC(=O)c1cccc(OCc2ccccc2)c1 [Example 35, N-Hydroxy-N-[2-((3-phenylmethyloxybenzoyl)amino)ethyl]urea] | 220 | 15 |  |
| NC(=O)N(O)CCNC(=O)c1ccc(Oc2ccccc2)o1 [Example 36, N-Hydroxy-N-[2-((5-phenoxyfuran-2-oyl)amino)ethyl]urea] | 130 |  | 78 |
| CN(CCN(O)C(N)=O)Cc1cccc(Oc2ccc(Cl)cc2)c1 [Example 37, N-Hydroxy-N-[2-(N-methyl-((3-(4-chlorophenoxy)phenyl)methyl)amino)ethyl]urea] | 100 | 80 |  |
| COc1ccc(Oc2cccc(CN(C)CCN(O)C(N)=O)c2)cc1 [Example 38] | 200 | 86 |  |
| CN(CCN(O)C(N)=O)Cc1cccc(Oc2ccc(Cl)c(Cl)c2)c1 [Example 39, N-Hydroxy-N-[2-(N-methyl((3-(3,4-dichlorophenoxy)phenyl)methyl)amino)ethyl]urea] | 310 |  |  |
| CN(CCN(O)C(N)=O)Cc1cccc(Oc2cc(Cl)cc(Cl)c2)c1 [Example 40, N-Hydroxy-N-[2-(N-methyl-((3-(3,5-dichlorophenoxy)phenyl)methyl)amino)ethyl]urea] | 150 | 76 |  |
| COc1ccc(CN(C)CCN(O)C(N)=O)cc1OCc1ccccc1 [Example 41, N-Hydroxy-N-[2-(((((4-methoxy-3-phenylmethoxy)phenyl)methyl)-N-methyl)amino)ethyl]urea] | 1600 |  |  |
| CC(C)Oc1cccc(C(=O)NCCN(O)C(N)=O)c1 [Example 46, N-Hydroxy-N-[2-((3-(1-methylethoxy)benzoyl)amino)ethyl]urea] | 290 |  |  |
| C=C(C)COc1cccc(C(=O)NCCN(O)C(N)=O)c1 [Example 47, N-Hydroxy-N-[2-((3-(2-methyl-prop-2-enyloxy)benzoyl)amino)ethyl]urea] | 230 |  |  |
| NC(=O)N(O)CCNS(=O)(=O)c1ccc2ccccc2c1 [Example 48, N-Hydroxy-N-[2-((naphth-2-ylsulfonyl)amino)ethyl]urea] | 1100 |  |  |
| NC(=O)N(O)CCNC(=O)c1cccn1Cc1ccc(Cl)cc1 [Example 49, N-Hydroxy-N-[2-(((1-(4-chlorophenylmethyl)pyrrol-2-yl)carbonyl)amino)ethyl]urea] | 290 |  |  |

| Compound | IC50 [1] [nM] | inhibition in vivo at 100 µmol/kg (Leukotrienes) [%] | inhibition in vivo at 30 µmol/kg (Leukotrienes) [%] |
| --- | --- | --- | --- |
| CC(CN(O)C(N)=O)N(C)C(=O)c1cccc(Oc2ccc(Cl)cc2)c1 (centres unmarked) [Example 50, N-Hydroxy-N-[2-(((3-(4-chlorophenoxy)benzoyl)-N-methyl)amino)propyl]urea] | 5800 |  |  |
| NC(=O)N(O)CCNC(=O)c1ccccc1Oc1ccccc1 [Example 51, N-Hydroxy-N-[2-((2-phenoxybenzoyl)amino)ethyl]urea] | 240 |  | 47 |
| NC(=O)N(O)CCNC(=O)c1ccc(Oc2ccccc2)cc1 [Example 52, N-Hydroxy-N-[2-((4-phenoxybenzoyl)amino)ethyl]urea] | 160 |  | 19 |
| CCCCCCOc1ccc(C(=O)NCCN(O)C(N)=O)cc1 [Example 57, N-Hydroxy-N-[2-((4-n-hexyloxybenzoyl)amino)ethyl]urea] | 290 |  |  |
| NC(=O)N(O)CCNC(=O)c1cscc1Sc1ccc(Cl)cc1 [Example 59, N-Hydroxy-N-[2-((4-(4-chlorothiophenoxy)thien-3-oyl)amino)ethyl]urea] | 100 |  |  |
| NC(=O)N(O)CCNC(=O)c1cccc(C(=O)c2ccccc2)c1 [Example 65, N-Hydroxy-N-[2-((3-benzoylbenzoyl)amino)ethyl]urea] | 220 |  |  |
| CC(Oc1ccc(C(=O)NCCN(O)C(N)=O)cc1)c1ccccc1 (centres unmarked) [Example 66, N-Hydroxy-N-[2-((4-(1-phenylethyloxy)benzoyl)amino)ethyl]urea] | 250 |  |  |
| CC(Oc1cccc(C(=O)NCCN(O)C(N)=O)c1)c1ccccc1 (centres unmarked) [Example 67, N-Hydroxy-N-[2-((3-(1-phenylethyloxy)benzoyl)amino)ethyl]urea] | 350 |  |  |
| CC(C(=O)NCCN(O)C(N)=O)c1cccc(C(C)c2ccccc2)c1 (centres unmarked) [Example 69, N-Hydroxy-N-[2-(((3-(1-phenylethyl)phenyl)propion-2-yl)amino)ethyl]urea] | 390 |  |  |
| NC(=O)N(O)CCNC(=O)COc1ccc(Oc2ccccc2)cc1 [Example 72, N-Hydroxy-N-[2-((4-phenoxyphenoxyacetyl)amino)ethyl] urea] | 110 |  |  |
| NC(=O)N(O)CCNC(=O)COc1ccccc1Oc1ccccc1 [Example 73, N-Hydroxy-N-[2-((2-phenoxyphenoxyacetyl)amino)ethyl]urea] |  |  | 53 |
| NC(=O)N(O)CCNC(=O)c1ccc2ccccc2n1 [Example 75, N-Hydroxy-N-[2-((quinolin-2-oyl)amino)ethyl]urea] | 100 |  |  |
| COc1ccc2cc(/C=C(\C)C(=O)NCCN(O)C(N)=O)ccc2c1 [Example 76, N-Hydroxy-N-[2-(((3-(6-methoxynaphth-2-yl)prop-2-en-2-yl)carbonyl)amino)ethyl]urea] | 1000 |  |  |
| NC(=O)N(O)CCNC(=O)CCc1ccccc1 [Example 77, N-Hydroxy-N-[2-((3-phenylpropionyl)amino)ethyl]urea] | 390 |  |  |
| CC(C)Cc1ccc(C(C)C(=O)NCCN(O)C(N)=O)cc1 (centres unmarked) [Example 82, N-Hydroxy-N-[2-((2-(4-(2-methylpropyl)phenyl)propionyl)amino)ethyl]urea] | 5000 |  |  |
| NC(=O)N(O)CCNC(=O)Cc1ccccc1Nc1c(Cl)cccc1Cl [Example 83, N-Hydroxy-N-[2((2-(2.6-dichlorophenylamino)phenylacetyl)amino)ethyl]urea] | 440 |  |  |
| NC(=O)N(O)CCNC(=O)c1csc(-c2ccccc2)n1 [Example 84, N-Hydroxy-N-[2-((2-phenylthiazol-4-oyl)amino)ethyl]urea] | 930 |  |  |
| CC(CNC(=O)OC(C)(C)C)N(O)C(N)=O (centres unmarked) [Example 85, (d.l)-N-Hydroxy-N-[3-((tert-butyoxycarbonyl)amino)prop-2-yl]urea] | 290 |  |  |
| N-Hydroxy-N-[2-((3-(4-chlorophenylsulfonyl)benzoyl)amino)ethyl]urea [Example 62] | 910 |  |  |
